Test results taken from patent publication US20210267865A1, “COSMETIC COMPOSITION FOR INCREASING SKIN EXFOLIATION” (LG HOUSEHOLD & HEALTH CARE LTD., priority 2018, published 2021).

Assays:
pig skin = assay: Evaluation of pig skin exfoliation (number of exfoliated cells from biopsied pig skin); conditions: for activity versus gluconolactone (PHA) or lactic acid (AHA) at pH 4: neutral or weakly acidic pH of 5-7
Procedure: The exfoliation evaluation method described in Journal of the European Academy of Dermatology and Venereology, 2014, 28, 415-423 was used. Specifically, pig skin was biopsied and a sample to be tested was added. Then, the number of exfoliated cells was measured with a cell counter and was plotted with water as a negative control group (0%) and 10% gluconolactone at pH 4 as a positive control group (100%).

[1] = test system: stratum corneum of inside forearm and upper arm; assay: Evaluation of exfoliation turnover enhancement by DHA staining (human skin test); assay type: in vivo; conditions: for turnover time (TT100): polyol humectant content 10% or 50%, non-application group 20 days
Procedure: DHA staining for evaluating the speed of exfoliation turnover was conducted for 10 healthy males aged between 20 and 40 years according to the method described in Dermatology 1993, 186, 133-137. Prior to sample application, the color of the inside forearm and upper arm of the test subjects was measured with Chroma Meter. Then, a 1.5×1.5 cm gauze soaked with about 0.4 mL of 10% dihydroxyacetone (DHA) was attached to the inside forearm and upper arm for 8 hours. 48 hours later, the color of the part that was pigmented brown by DHA was compared with that before the sample application. Subsequently, while applying the sample twice a day, the time required to return to the original skin color was measured by measuring the skin color every day with Chroma Meter. TT (turnover time) 100% means the time required for the existing stratum corneum to be completely (100%) replaced with a new stratum corneum. In this experiment, the time required for the skin pigmented by DHA corneum to completely return to the original color was compared by regression analysis. The result was compared with that of the negative control group (20 days).

[2] = with glycerin, dipropylene glycol or 1,3-butylene glycol, polyol humectant content exceeding 10 wt %

C[N+](C)(C)CC(O)CC(=O)[O-] (centres unmarked) [Carnitine, carnitine]
exfoliation effect (pig skin; 5% carnitine, pH 7, concentration of glycerin higher than 10 wt % (FIG. 2)): 0%
exfoliation activity (pig skin; 5% carnitine, pH 7, with 10% or 12% glycerin, dipropylene glycol or 1,3-butylene glycol (FIG. 5)): decreased to the levels where human skin test is meaningless
Exfoliation ability % (pig skin; carnitine 0.5 wt %, glycerin 0 wt %): 61%
Exfoliation ability % (pig skin; carnitine 0.5 wt %, glycerin 0.5 wt %): 50%
Exfoliation ability % (pig skin; carnitine 0.5 wt %, glycerin 1 wt %): 18%
Exfoliation ability % (pig skin; carnitine 0.5 wt %, glycerin 5 wt %): 11%
Exfoliation ability % (pig skin; carnitine 0.5 wt %, glycerin 10 wt %): 0%
Exfoliation ability % (pig skin; carnitine 5 wt %, glycerin 0 wt %): 100%
Exfoliation ability % (pig skin; carnitine 5 wt %, glycerin 0.1 wt %): 89%
Exfoliation ability % (pig skin; carnitine 5 wt %, glycerin 0.5 wt %): 91%
Exfoliation ability % (pig skin; carnitine 5 wt %, glycerin 1 wt %): 55%
Exfoliation ability % (pig skin; carnitine 5 wt %, glycerin 2 wt %): 53%
Exfoliation ability % (pig skin; carnitine 5 wt %, glycerin 3 wt %): 30%
Exfoliation ability % (pig skin; carnitine 5 wt %, glycerin 4 wt %): 19%
Exfoliation ability % (pig skin; carnitine 5 wt %, glycerin 5 wt %): 12%
Exfoliation ability % (pig skin; carnitine 5 wt %, glycerin 7 wt %): 5%
Exfoliation ability % (pig skin; carnitine 5 wt %, glycerin 10 wt %): 4%
Exfoliation ability % (pig skin; carnitine 5 wt %, glycerin 12 wt %): 0%
Exfoliation ability % (pig skin; carnitine 5 wt %, glycerin 15 wt %): 0%
activity versus gluconolactone (PHA) or lactic acid (AHA) at pH 4 (pig skin): comparable to or better than
exfoliation effect (pig skin; [2]): 0%
turnover time (TT100) [1]: no significant difference

N[C@@H](CO)C(=O)O [Serine, serine]
exfoliating effect (pig skin; 5% serine with humectant mixtures (glycerin 1:DPG 1:1,3-BG 1) (FIG. 6)): decreased similarly
exfoliation effect (pig skin; 5% serine, pH 6, concentration of glycerin 10% or higher (FIG. 1)): 0%
exfoliation activity (pig skin; 5% serine, pH 6, dipropylene glycol or 1,3-butylene glycol exceeding 10% (FIGS. 3 and 4)): decreased below that of water (negative control group)
activity versus gluconolactone (PHA) or lactic acid (AHA) at pH 4 (pig skin): comparable to or better than
Exfoliation ability % (pig skin; serine 0.5 wt %, glycerin 0 wt %): 56%
Exfoliation ability % (pig skin; serine 0.5 wt %, glycerin 0.5 wt %): 53%
Exfoliation ability % (pig skin; serine 0.5 wt %, glycerin 1 wt %): 34%
Exfoliation ability % (pig skin; serine 0.5 wt %, glycerin 5 wt %): 19%
Exfoliation ability % (pig skin; serine 0.5 wt %, glycerin 10 wt %): 13%
Exfoliation ability % (pig skin; serine 5 wt %, glycerin 0 wt %): 91%
Exfoliation ability % (pig skin; serine 5 wt %, glycerin 0.1 wt %): 85%
Exfoliation ability % (pig skin; serine 5 wt %, glycerin 0.5 wt %): 86%
Exfoliation ability % (pig skin; serine 5 wt %, glycerin 1 wt %): 59%
Exfoliation ability % (pig skin; serine 5 wt %, glycerin 2 wt %): 47%
Exfoliation ability % (pig skin; serine 5 wt %, glycerin 3 wt %): 23%
Exfoliation ability % (pig skin; serine 5 wt %, glycerin 4 wt %): 26%
Exfoliation ability % (pig skin; serine 5 wt %, glycerin 5 wt %): 21%
Exfoliation ability % (pig skin; serine 5 wt %, glycerin 7 wt %): 16%
Exfoliation ability % (pig skin; serine 5 wt %, glycerin 10 wt %): 16%
Exfoliation ability % (pig skin; serine 5 wt %, glycerin 12 wt %): −2%
Exfoliation ability % (pig skin; serine 5 wt %, glycerin 15 wt %): −5%
exfoliation effect (pig skin; [2]): 0%
decrease of TT100% versus non-application group ([1]; 5% serine, applied twice a day): 6 days
TT100% (turnover time) ([1]; 5% serine, applied twice a day, non-application group 20 days (FIG. 13)): 14 days
turnover time (TT100) [1]: no significant difference
visual change after application for 10 days ([1]; serine alone at concentrations of 0.5% and 5% (FIG. 12)): effective
visual change after application for 10 days ([1]; serine with glycerin concentration 10% or 50% (FIG. 12)): no significant difference from the non-application group
TT100% (turnover time) ([1]; serine with glycerin concentration 10% or 50% (FIG. 13)): no significant difference from the non-application group
